# Key:
# [1] = biological target: Macrophage colony-stimulating factor 1 receptor (Homo sapiens) (UniProt P07333); assay: Selectivity interaction (KinomeScan (DiscoverX)) EUB0000699a CSF1R; details: at 10 µM
# [2] = biological target: T1, Rhodopsin kinase GRK1 (Homo sapiens) (UniProt Q15835); assay: Selectivity interaction (KinomeScan (DiscoverX)) EUB0000229b GRK1; details: at 10 µM
# T1 sequence (whole entry): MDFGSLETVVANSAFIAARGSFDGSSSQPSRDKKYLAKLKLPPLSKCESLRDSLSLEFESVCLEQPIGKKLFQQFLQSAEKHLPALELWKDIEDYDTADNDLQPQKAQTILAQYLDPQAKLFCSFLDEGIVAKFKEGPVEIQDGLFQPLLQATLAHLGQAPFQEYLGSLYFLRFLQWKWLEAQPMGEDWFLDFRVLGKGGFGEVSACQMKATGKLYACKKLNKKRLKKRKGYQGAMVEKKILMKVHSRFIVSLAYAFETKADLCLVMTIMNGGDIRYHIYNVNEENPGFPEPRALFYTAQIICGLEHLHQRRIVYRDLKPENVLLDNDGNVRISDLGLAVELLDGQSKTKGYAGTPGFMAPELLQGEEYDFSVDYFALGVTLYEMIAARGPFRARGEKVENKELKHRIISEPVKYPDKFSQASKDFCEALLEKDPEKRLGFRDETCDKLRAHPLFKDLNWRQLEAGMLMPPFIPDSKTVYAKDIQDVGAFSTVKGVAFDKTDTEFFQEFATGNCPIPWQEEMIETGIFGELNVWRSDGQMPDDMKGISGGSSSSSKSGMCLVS
# [3] = biological target: Atypical kinase COQ8A, mitochondrial (Homo sapiens, UniProt Q8NI60); assay: Selectivity interaction (KinomeScan (DiscoverX)) EUB0001079a ADCK3; details: at 1 µM
# Sequence of Atypical kinase COQ8A, mitochondrial (Q8NI60 163-647 limits assumed): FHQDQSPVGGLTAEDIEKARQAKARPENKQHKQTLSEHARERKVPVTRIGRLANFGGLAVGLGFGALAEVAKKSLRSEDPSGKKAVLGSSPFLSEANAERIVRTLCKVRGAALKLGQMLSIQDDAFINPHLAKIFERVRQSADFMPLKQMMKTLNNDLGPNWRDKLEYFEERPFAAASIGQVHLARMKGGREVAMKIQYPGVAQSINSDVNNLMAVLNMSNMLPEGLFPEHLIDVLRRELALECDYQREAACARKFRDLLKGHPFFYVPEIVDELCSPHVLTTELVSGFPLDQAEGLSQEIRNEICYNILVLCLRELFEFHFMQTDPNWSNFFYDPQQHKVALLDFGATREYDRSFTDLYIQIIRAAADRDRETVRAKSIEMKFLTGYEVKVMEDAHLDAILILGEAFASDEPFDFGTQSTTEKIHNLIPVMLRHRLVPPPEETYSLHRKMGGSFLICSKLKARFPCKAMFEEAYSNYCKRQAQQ
# [4] = test system: Activin receptor type-1 (Homo sapiens), Q04771 [R206H]; assay: (§1) Selectivity interaction (LanthaScreen Eu Kinase Binding Assay) EUB0001632a ACVR1; details: at 10 µM
# Sequence of Activin receptor type-1 (Homo sapiens), Q04771 [R206H] (Q04771 whole entry R206H): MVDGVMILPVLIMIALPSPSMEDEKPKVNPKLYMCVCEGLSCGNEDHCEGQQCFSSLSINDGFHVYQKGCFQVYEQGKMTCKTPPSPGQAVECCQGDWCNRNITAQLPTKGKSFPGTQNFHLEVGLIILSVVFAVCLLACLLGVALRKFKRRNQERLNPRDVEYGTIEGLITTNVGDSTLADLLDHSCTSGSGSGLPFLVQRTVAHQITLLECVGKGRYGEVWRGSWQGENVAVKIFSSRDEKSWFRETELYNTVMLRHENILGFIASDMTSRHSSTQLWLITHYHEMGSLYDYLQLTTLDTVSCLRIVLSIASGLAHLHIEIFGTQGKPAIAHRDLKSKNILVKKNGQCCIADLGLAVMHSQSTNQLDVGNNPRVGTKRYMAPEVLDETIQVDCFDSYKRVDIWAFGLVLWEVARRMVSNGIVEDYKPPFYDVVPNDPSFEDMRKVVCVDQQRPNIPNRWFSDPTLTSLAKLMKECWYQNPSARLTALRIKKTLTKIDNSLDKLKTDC
# [5] = biological target: T2, Activin receptor type-1 (Homo sapiens) (UniProt Q04771); assay: as §1; details: at 10 µM
# T2 sequence (whole entry): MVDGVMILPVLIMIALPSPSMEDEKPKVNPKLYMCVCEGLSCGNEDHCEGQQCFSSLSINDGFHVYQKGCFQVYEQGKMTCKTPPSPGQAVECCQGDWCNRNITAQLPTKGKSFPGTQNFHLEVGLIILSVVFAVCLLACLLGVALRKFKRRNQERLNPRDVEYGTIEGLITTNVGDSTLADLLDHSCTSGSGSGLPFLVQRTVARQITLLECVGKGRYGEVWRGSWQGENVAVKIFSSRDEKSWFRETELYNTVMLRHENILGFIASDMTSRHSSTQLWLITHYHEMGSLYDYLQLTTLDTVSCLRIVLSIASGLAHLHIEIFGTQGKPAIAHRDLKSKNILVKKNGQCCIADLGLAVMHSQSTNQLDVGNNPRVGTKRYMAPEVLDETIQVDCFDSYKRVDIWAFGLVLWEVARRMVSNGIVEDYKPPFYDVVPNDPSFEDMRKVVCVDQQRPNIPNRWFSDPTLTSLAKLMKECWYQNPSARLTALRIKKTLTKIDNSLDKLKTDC
# [6] = biological target: Ephrin type-A receptor 5 (Homo sapiens) (UniProt P54756); assay: Selectivity interaction (KinomeScan (DiscoverX)) EUB0001049a EPHA5; details: at 1 µM
# Sequence of Ephrin type-A receptor 5 (Homo sapiens) (P54756 whole entry): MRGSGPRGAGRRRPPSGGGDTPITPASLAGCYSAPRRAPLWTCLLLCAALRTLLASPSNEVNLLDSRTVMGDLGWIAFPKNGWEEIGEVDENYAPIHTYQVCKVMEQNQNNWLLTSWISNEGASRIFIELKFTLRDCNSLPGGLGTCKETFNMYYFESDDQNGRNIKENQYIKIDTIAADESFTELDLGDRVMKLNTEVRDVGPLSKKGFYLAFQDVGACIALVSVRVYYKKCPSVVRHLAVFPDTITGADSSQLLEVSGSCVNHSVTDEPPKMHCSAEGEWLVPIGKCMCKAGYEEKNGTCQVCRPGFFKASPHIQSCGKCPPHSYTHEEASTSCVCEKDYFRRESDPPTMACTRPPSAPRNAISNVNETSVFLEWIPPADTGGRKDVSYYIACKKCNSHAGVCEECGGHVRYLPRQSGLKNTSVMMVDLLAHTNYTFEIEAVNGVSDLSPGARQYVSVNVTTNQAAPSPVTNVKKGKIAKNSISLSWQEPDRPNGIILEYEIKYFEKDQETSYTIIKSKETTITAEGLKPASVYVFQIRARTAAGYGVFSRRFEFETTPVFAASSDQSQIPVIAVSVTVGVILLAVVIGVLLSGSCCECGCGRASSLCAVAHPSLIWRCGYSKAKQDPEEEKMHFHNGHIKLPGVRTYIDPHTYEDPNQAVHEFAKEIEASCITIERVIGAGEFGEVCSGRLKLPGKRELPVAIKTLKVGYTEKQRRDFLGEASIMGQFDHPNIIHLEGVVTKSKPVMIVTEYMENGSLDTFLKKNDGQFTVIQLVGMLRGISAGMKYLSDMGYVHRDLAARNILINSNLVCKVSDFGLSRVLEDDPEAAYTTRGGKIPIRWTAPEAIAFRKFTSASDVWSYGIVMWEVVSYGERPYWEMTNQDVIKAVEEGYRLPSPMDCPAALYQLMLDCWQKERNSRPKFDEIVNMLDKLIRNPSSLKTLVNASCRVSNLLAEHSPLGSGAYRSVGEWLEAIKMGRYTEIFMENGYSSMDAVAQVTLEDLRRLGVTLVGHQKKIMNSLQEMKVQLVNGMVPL
# [7] = biological target: Activin receptor type-2B (Homo sapiens) (UniProt Q13705); details: at 10 µM
# Sequence of Activin receptor type-2B (Homo sapiens) (Q13705 whole entry): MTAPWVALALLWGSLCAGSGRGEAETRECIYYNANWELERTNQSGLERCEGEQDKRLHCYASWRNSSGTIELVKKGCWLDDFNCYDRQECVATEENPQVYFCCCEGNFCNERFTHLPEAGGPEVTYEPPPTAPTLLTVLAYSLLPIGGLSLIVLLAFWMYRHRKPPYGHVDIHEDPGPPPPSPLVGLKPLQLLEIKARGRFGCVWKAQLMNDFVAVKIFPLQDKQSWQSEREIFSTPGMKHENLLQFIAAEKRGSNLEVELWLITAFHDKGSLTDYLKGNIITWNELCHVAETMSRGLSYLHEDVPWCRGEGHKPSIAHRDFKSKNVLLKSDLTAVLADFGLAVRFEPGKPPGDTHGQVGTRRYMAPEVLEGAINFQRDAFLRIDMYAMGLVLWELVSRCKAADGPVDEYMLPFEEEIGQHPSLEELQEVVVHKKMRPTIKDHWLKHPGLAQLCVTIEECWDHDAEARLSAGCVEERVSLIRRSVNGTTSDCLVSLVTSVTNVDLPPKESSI
# [8] = biological target: T3, MAP/microtubule affinity-regulating kinase 4 (Homo sapiens) (UniProt Q96L34); assay: Selectivity interaction (KinomeScan (DiscoverX)) EUB0000045b MARK4
# T3 sequence (whole entry): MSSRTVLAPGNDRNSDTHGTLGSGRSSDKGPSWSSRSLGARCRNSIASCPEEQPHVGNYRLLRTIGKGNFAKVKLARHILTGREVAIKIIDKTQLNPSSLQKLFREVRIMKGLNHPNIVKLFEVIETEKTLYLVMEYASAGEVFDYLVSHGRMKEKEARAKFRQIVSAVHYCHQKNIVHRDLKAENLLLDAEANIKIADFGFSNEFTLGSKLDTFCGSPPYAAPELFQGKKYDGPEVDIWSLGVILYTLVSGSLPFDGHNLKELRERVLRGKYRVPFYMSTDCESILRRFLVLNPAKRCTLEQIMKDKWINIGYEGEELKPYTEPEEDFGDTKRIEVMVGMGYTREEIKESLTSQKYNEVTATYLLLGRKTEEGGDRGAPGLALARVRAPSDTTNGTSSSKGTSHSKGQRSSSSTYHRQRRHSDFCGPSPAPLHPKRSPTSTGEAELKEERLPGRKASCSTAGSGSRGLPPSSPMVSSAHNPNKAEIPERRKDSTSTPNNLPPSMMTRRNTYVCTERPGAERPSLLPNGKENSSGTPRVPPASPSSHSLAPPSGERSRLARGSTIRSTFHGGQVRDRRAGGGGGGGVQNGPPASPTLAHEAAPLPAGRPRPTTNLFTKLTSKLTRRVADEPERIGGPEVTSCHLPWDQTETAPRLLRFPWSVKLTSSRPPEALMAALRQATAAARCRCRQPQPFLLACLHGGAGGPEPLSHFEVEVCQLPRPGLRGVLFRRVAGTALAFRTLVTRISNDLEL
# [9] = biological target: Dual specificity mitogen-activated protein kinase kinase 2 (Homo sapiens) (UniProt P36507); assay: Selectivity interaction (KinomeScan (DiscoverX)) EUB0001619a MAP2K2; details: at 1 µM
# Sequence of Dual specificity mitogen-activated protein kinase kinase 2 (Homo sapiens) (P36507 whole entry): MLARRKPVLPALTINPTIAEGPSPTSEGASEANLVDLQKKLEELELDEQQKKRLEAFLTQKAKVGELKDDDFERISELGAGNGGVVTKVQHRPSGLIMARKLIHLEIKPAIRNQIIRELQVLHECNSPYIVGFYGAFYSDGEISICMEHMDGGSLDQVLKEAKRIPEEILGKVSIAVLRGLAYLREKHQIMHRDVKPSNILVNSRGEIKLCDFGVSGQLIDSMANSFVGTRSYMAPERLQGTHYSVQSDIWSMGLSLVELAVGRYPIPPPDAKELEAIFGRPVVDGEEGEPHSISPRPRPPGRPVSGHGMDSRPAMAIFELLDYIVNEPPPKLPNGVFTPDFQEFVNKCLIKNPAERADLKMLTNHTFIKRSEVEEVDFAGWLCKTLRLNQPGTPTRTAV
# Sequence of Macrophage colony-stimulating factor 1 receptor (Homo sapiens) (P07333 whole entry): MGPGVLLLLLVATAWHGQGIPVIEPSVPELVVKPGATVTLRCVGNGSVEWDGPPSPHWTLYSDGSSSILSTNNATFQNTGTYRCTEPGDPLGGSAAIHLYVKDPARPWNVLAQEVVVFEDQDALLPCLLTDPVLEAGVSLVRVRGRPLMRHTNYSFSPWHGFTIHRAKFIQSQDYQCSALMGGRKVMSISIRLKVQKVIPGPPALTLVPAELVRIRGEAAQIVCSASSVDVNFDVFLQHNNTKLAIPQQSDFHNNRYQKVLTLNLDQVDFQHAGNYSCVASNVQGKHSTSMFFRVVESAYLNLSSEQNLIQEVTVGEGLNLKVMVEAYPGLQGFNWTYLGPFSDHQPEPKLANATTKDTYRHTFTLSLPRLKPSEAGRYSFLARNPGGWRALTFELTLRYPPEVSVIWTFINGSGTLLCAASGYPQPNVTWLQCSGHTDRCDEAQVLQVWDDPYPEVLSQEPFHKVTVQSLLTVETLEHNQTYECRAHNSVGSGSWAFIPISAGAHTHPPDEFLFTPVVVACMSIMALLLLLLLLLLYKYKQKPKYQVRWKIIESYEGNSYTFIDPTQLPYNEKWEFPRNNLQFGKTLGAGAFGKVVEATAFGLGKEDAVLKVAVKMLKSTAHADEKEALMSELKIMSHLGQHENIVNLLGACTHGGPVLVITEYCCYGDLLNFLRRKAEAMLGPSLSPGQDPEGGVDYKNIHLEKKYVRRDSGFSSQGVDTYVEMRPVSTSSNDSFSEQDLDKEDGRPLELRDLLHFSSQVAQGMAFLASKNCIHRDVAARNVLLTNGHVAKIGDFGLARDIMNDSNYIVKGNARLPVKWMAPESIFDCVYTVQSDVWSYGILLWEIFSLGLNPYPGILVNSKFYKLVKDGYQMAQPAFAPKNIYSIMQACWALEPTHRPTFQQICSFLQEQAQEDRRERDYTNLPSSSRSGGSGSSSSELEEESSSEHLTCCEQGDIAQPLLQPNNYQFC
smiles,measurement,setting,value
CCN(CC)CCCCNc1ncc2cc(-c3cc(OC)cc(OC)c3)c(NC(=O)NC(C)(C)C)nc2n1,% of control,[1],6.6%
COc1cc(N(C)c2ccnc3ccc(C(F)(F)F)cc23)cc(OC)c1OC,% binding,[2],68%
Nc1cnc(N2CCc3cc(S(=O)(=O)Nc4c(F)cc(Cl)cc4F)cc(N4CCCC4=O)c32)nc1 [TP-020n],% of control,[3],100%
Cn1cc(-n2cnc3c(NCc4nc5cc(Cl)c(Cl)cc5[nH]4)nc(N4CCOCC4)nc32)cn1,% of inhibition,[4],-125%
same,% of inhibition,[5],-2.09%
COc1cc(Nc2nc(C)cc(-c3cnn4nc(OC)ccc34)n2)cc(C(F)(F)F)c1,% of control,[6],96%
COCC(=O)NC/C=C/c1ccc2ncnc(Nc3ccc(Oc4ccc(C)nc4)c(C)c3)c2c1 [CP-724714],% of control,[7],100%
C=CC(=O)Nc1cc(-n2c(=O)ccc3cnc4ccc(-c5ccc(NS(C)(=O)=O)cc5)cc4c32)ccc1C,% of control,[8]; at 1 µM,80%
same,% of control,[8]; at 10 µM,76%
N#Cc1cccc(-c2c[nH]c3ncnc(N4CCOCC4)c23)c1,% of control,[9],19%
